Where “and” joins values, the source holds several entries; their conditions need not be identical. Identical values can stand only once.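 Following 48 hours of exposure in 96-well plates, responses at five concentrations were used to interpolate endpoints linearly. GI50 marks 50% less growth. Definition used: TGI = concentration required for complete inhibition of growth.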

The subject of the first test is ACHN renal. Briefly: NCI-60 cell line screen, 48 h.
`O=c1c2ncn(COCCCl)c2n(-c2ccccc2)c(=S)n1-c1ccccc1` showed a TGI above 100 µM.

`O=C(O)c1ccc(S(=O)(=O)c2ccccc2[N+](=O)[O-])cc1` showed a TGI above 10 µM.

The compound `COc1ccc(/C=N/N=C(\N)NO)c(O)c1` gave a TGI above 10 µM.

Turning to `OCC1OC(n2cnc3c(Cl)nc(Nc4ccccc4)nc32)CC1O` (centres undefined), the TGI stood at 32.1 µM.

Compound `CC1(CF)SCc2nc3ccccc3n21` (centres undefined) gave a TGI above 100 µM.

`Nc1cccc(Nc2nc3ccccc3nc2NS(=O)(=O)c2ccccc2)c1`: the TGI is above 100 µM.

Take `CN(C)Cc1cc(C(=O)/C=C/c2ccccc2Cl)cc(CN(C)C)c1O`: the TGI is 16.3 µM.

As for `O=C1NC(N/N=C/C(O)C(O)C(O)CO)=N/C1=C\c1ccco1` (centres undefined), the TGI was above 100 µM.

Take `COc1cc(CNc2ccc(SC)cc2)cc(OC)c1OC`: the GI50 was 22.8 µM and 11 µM; the TGI is above 100 µM.

With `N#Cc1c(-c2ccccc2)nc(-c2ccccc2)sc1=S`, the TGI was above 100 µM.

For the compound `Cc1cc(C2(O)C=C(C(C)(C)C)C(=O)C(C(C)(C)C)=C2)c(C)cc1C1(O)C=C(C(C)(C)C)C(=O)C(C(C)(C)C)=C1`, the TGI is above 100 µM.

`O=C1CCCCC(=O)OC2(CCCCC2=O)CC1` (centres undefined) had a TGI above 100 µM.

In the case of `CC1=NN(c2ccc(S(=O)(=O)O)cc2)C2(C1)SCC(=O)N2c1nc2ccccc2s1` (centres undefined), the TGI is above 100 µM.

The compound `CCOC(=O)/C=C(/C(=O)OCC)n1ccc(N)nc1=O` returned a TGI above 100 µM.

`CC(=O)O[C@H]1C#C/C=C\C#CC[C@@H]2C(=O)N[C@@H]12` yielded a TGI of 52.2 µM.

Compound `CCOP(=O)(OCC)c1c(C(=O)OC)cc(=O)[nH]c1-c1ccc(C)cc1` registered a TGI of 9.45 µM.

Compound `C1CCC2C(C1)CCCC2NC1=NCCO1` (centres undefined) came in with a TGI above 100 µM.

With `CCC1(C)N=C(c2cnccn2)NN1c1ccc(Cl)cc1` (centres undefined), the TGI is above 100 µM.

Compound `Cc1cn(C2CC(n3cc(Cn4cc(Br)c(=O)[nH]c4=O)nn3)C(CO)O2)c(=O)[nH]c1=O` (centres undefined) showed a TGI above 100 µM.

`CC1Cn2c(nc3ccccc32)NC1=O` (centres undefined) had a TGI above 100 µM.

For another test, the system named is MALME-3M melanoma. The test is described as follows: NCI-60 cell line screen, 48 h.
For `O=c1c2ncn(COCCCl)c2n(-c2ccccc2)c(=S)n1-c1ccccc1`, the TGI was above 100 µM.

Compound `O=C(O)c1ccc(S(=O)(=O)c2ccccc2[N+](=O)[O-])cc1` came in with a TGI above 10 µM.

`COc1ccc(/C=N/N=C(\N)NO)c(O)c1` came in with a TGI above 10 µM.

The compound `OCC1OC(n2cnc3c(Cl)nc(Nc4ccccc4)nc32)CC1O` (centres undefined) returned a TGI of 37.8 µM.

`CC1(CF)SCc2nc3ccccc3n21` (centres undefined): the TGI was above 100 µM.

In the case of `Nc1cccc(Nc2nc3ccccc3nc2NS(=O)(=O)c2ccccc2)c1`, the TGI was determined as 72.7 µM.

Take `CN(C)Cc1cc(C(=O)/C=C/c2ccccc2Cl)cc(CN(C)C)c1O`: the TGI is 23.5 µM.

Turning to `O=C1NC(N/N=C/C(O)C(O)C(O)CO)=N/C1=C\c1ccco1` (centres undefined), the TGI is above 100 µM.

For `COc1cc(CNc2ccc(SC)cc2)cc(OC)c1OC`, the TGI is above 100 µM.

`N#Cc1c(-c2ccccc2)nc(-c2ccccc2)sc1=S` showed a TGI above 100 µM.

In the case of `Cc1cc(C2(O)C=C(C(C)(C)C)C(=O)C(C(C)(C)C)=C2)c(C)cc1C1(O)C=C(C(C)(C)C)C(=O)C(C(C)(C)C)=C1`, the TGI was above 100 µM.

`O=C1CCCCC(=O)OC2(CCCCC2=O)CC1` (centres undefined) returned a TGI above 100 µM.

In the case of `CC1=NN(c2ccc(S(=O)(=O)O)cc2)C2(C1)SCC(=O)N2c1nc2ccccc2s1` (centres undefined), the TGI was above 100 µM.

As to `CCOC(=O)/C=C(/C(=O)OCC)n1ccc(N)nc1=O`, the TGI was above 100 µM.

In turn, `CC(=O)O[C@H]1C#C/C=C\C#CC[C@@H]2C(=O)N[C@@H]12` gave a TGI above 100 µM.

As for `CCOP(=O)(OCC)c1c(C(=O)OC)cc(=O)[nH]c1-c1ccc(C)cc1`, the TGI was 19.9 µM.

Compound `C1CCC2C(C1)CCCC2NC1=NCCO1` (centres undefined) registered a TGI above 100 µM.

Take `CCC1(C)N=C(c2cnccn2)NN1c1ccc(Cl)cc1` (centres undefined): the TGI is above 100 µM.

The compound `Cc1cn(C2CC(n3cc(Cn4cc(Br)c(=O)[nH]c4=O)nn3)C(CO)O2)c(=O)[nH]c1=O` (centres undefined) returned a TGI above 100 µM.

The compound `CC1Cn2c(nc3ccccc32)NC1=O` (centres undefined) had a TGI above 100 µM.

In the next test the test system is SF-268 CNS. Briefly: NCI-60 cell line screen, 48 h.
With `O=c1c2ncn(COCCCl)c2n(-c2ccccc2)c(=S)n1-c1ccccc1`, the TGI was above 100 µM.

With `O=C(O)c1ccc(S(=O)(=O)c2ccccc2[N+](=O)[O-])cc1`, the TGI was above 10 µM.

`COc1ccc(/C=N/N=C(\N)NO)c(O)c1` registered a TGI above 10 µM.

Compound `OCC1OC(n2cnc3c(Cl)nc(Nc4ccccc4)nc32)CC1O` (centres undefined) yielded a TGI above 100 µM.

`CC1(CF)SCc2nc3ccccc3n21` (centres undefined): the TGI is above 100 µM.

On to `Nc1cccc(Nc2nc3ccccc3nc2NS(=O)(=O)c2ccccc2)c1`, for which the TGI was above 100 µM.

Consider `CN(C)Cc1cc(C(=O)/C=C/c2ccccc2Cl)cc(CN(C)C)c1O`, for which the TGI is 61.3 µM.

Take `O=C1NC(N/N=C/C(O)C(O)C(O)CO)=N/C1=C\c1ccco1` (centres undefined): the TGI is above 100 µM.

In the case of `COc1cc(CNc2ccc(SC)cc2)cc(OC)c1OC`, the GI50 is 19.9 µM and 7.47 µM; the TGI was > 100 µM and 69.3 µM.

The compound `N#Cc1c(-c2ccccc2)nc(-c2ccccc2)sc1=S` gave a TGI above 100 µM.

Consider `Cc1cc(C2(O)C=C(C(C)(C)C)C(=O)C(C(C)(C)C)=C2)c(C)cc1C1(O)C=C(C(C)(C)C)C(=O)C(C(C)(C)C)=C1`, for which the TGI is above 100 µM.

In turn, `O=C1CCCCC(=O)OC2(CCCCC2=O)CC1` (centres undefined) gave a TGI above 100 µM.

As to `CC1=NN(c2ccc(S(=O)(=O)O)cc2)C2(C1)SCC(=O)N2c1nc2ccccc2s1` (centres undefined), the TGI is above 100 µM.

In turn, `CCOC(=O)/C=C(/C(=O)OCC)n1ccc(N)nc1=O` came in with a TGI above 100 µM.

The compound `CC(=O)O[C@H]1C#C/C=C\C#CC[C@@H]2C(=O)N[C@@H]12` had a TGI above 70.2 µM.

The compound `CCOP(=O)(OCC)c1c(C(=O)OC)cc(=O)[nH]c1-c1ccc(C)cc1` displayed a TGI above 52.1 µM.

The compound `C1CCC2C(C1)CCCC2NC1=NCCO1` (centres undefined) had a TGI above 100 µM.

On to `CCC1(C)N=C(c2cnccn2)NN1c1ccc(Cl)cc1` (centres undefined), for which the TGI is above 100 µM.

As to `Cc1cn(C2CC(n3cc(Cn4cc(Br)c(=O)[nH]c4=O)nn3)C(CO)O2)c(=O)[nH]c1=O` (centres undefined), the TGI was above 100 µM.

The compound `CC1Cn2c(nc3ccccc32)NC1=O` (centres undefined) had a TGI above 100 µM.

Another test deals with RPMI-8226 leukemia. The test is described as follows: NCI-60 cell line screen, 48 h.
Consider `O=c1c2ncn(COCCCl)c2n(-c2ccccc2)c(=S)n1-c1ccccc1`, for which the TGI was above 100 µM.

The compound `O=C(O)c1ccc(S(=O)(=O)c2ccccc2[N+](=O)[O-])cc1` yielded a TGI above 10 µM.

On to `COc1ccc(/C=N/N=C(\N)NO)c(O)c1`, for which the TGI is above 10 µM.

Regarding `OCC1OC(n2cnc3c(Cl)nc(Nc4ccccc4)nc32)CC1O` (centres undefined), the TGI was above 100 µM.

The compound `CC1(CF)SCc2nc3ccccc3n21` (centres undefined) yielded a TGI above 100 µM.

Consider `Nc1cccc(Nc2nc3ccccc3nc2NS(=O)(=O)c2ccccc2)c1`, for which the TGI came to 52.5 µM.

For the compound `CN(C)Cc1cc(C(=O)/C=C/c2ccccc2Cl)cc(CN(C)C)c1O`, the TGI came to 56.5 µM.

The compound `O=C1NC(N/N=C/C(O)C(O)C(O)CO)=N/C1=C\c1ccco1` (centres undefined) gave a TGI above 100 µM.

As to `COc1cc(CNc2ccc(SC)cc2)cc(OC)c1OC`, the TGI is > 78.3 µM and 66.2 µM.

`N#Cc1c(-c2ccccc2)nc(-c2ccccc2)sc1=S`: the TGI is above 100 µM.

Regarding `Cc1cc(C2(O)C=C(C(C)(C)C)C(=O)C(C(C)(C)C)=C2)c(C)cc1C1(O)C=C(C(C)(C)C)C(=O)C(C(C)(C)C)=C1`, the TGI is above 100 µM.

With `O=C1CCCCC(=O)OC2(CCCCC2=O)CC1` (centres undefined), the TGI was above 100 µM.

Regarding `CC1=NN(c2ccc(S(=O)(=O)O)cc2)C2(C1)SCC(=O)N2c1nc2ccccc2s1` (centres undefined), the TGI is above 100 µM.

`CCOC(=O)/C=C(/C(=O)OCC)n1ccc(N)nc1=O` registered a TGI above 100 µM.

With `CC(=O)O[C@H]1C#C/C=C\C#CC[C@@H]2C(=O)N[C@@H]12`, the TGI was above 78.1 µM.

In turn, `CCOP(=O)(OCC)c1c(C(=O)OC)cc(=O)[nH]c1-c1ccc(C)cc1` displayed a TGI of 19.8 µM.

The compound `C1CCC2C(C1)CCCC2NC1=NCCO1` (centres undefined) came in with a TGI above 100 µM.

Turning to `CCC1(C)N=C(c2cnccn2)NN1c1ccc(Cl)cc1` (centres undefined), the TGI was above 100 µM.

In the case of `Cc1cn(C2CC(n3cc(Cn4cc(Br)c(=O)[nH]c4=O)nn3)C(CO)O2)c(=O)[nH]c1=O` (centres undefined), the TGI was above 100 µM.

The compound `CC1Cn2c(nc3ccccc32)NC1=O` (centres undefined) registered a TGI above 100 µM.

The subject of a further test is OVCAR-8 ovarian. The test is described as follows: NCI-60 cell line screen, 48 h.
In turn, `O=c1c2ncn(COCCCl)c2n(-c2ccccc2)c(=S)n1-c1ccccc1` gave a TGI above 100 µM.

In the case of `O=C(O)c1ccc(S(=O)(=O)c2ccccc2[N+](=O)[O-])cc1`, the TGI is above 10 µM.

The compound `COc1ccc(/C=N/N=C(\N)NO)c(O)c1` gave a TGI above 10 µM.

`OCC1OC(n2cnc3c(Cl)nc(Nc4ccccc4)nc32)CC1O` (centres undefined) came in with a TGI above 100 µM.

`CC1(CF)SCc2nc3ccccc3n21` (centres undefined) gave a TGI above 100 µM.

As for `Nc1cccc(Nc2nc3ccccc3nc2NS(=O)(=O)c2ccccc2)c1`, the TGI was above 100 µM.

With `CN(C)Cc1cc(C(=O)/C=C/c2ccccc2Cl)cc(CN(C)C)c1O`, the TGI was found to be 31.9 µM.

`O=C1NC(N/N=C/C(O)C(O)C(O)CO)=N/C1=C\c1ccco1` (centres undefined): the TGI was above 100 µM.

Regarding `COc1cc(CNc2ccc(SC)cc2)cc(OC)c1OC`, the GI50 is 27.1 µM and 7.69 µM; the TGI was > 92.6 µM and 56 µM.

Turning to `N#Cc1c(-c2ccccc2)nc(-c2ccccc2)sc1=S`, the TGI was above 100 µM.

With `Cc1cc(C2(O)C=C(C(C)(C)C)C(=O)C(C(C)(C)C)=C2)c(C)cc1C1(O)C=C(C(C)(C)C)C(=O)C(C(C)(C)C)=C1`, the TGI is above 100 µM.

Compound `O=C1CCCCC(=O)OC2(CCCCC2=O)CC1` (centres undefined) registered a TGI above 100 µM.

`CC1=NN(c2ccc(S(=O)(=O)O)cc2)C2(C1)SCC(=O)N2c1nc2ccccc2s1` (centres undefined) registered a TGI above 100 µM.

Take `CCOC(=O)/C=C(/C(=O)OCC)n1ccc(N)nc1=O`: the TGI is above 100 µM.

Compound `CC(=O)O[C@H]1C#C/C=C\C#CC[C@@H]2C(=O)N[C@@H]12` yielded a TGI of 73.1 µM.

Consider `CCOP(=O)(OCC)c1c(C(=O)OC)cc(=O)[nH]c1-c1ccc(C)cc1`, for which the TGI is above 47.1 µM.

`C1CCC2C(C1)CCCC2NC1=NCCO1` (centres undefined) registered a TGI above 100 µM.

On to `CCC1(C)N=C(c2cnccn2)NN1c1ccc(Cl)cc1` (centres undefined), for which the TGI is above 100 µM.

On to `Cc1cn(C2CC(n3cc(Cn4cc(Br)c(=O)[nH]c4=O)nn3)C(CO)O2)c(=O)[nH]c1=O` (centres undefined), for which the TGI was above 100 µM.

`CC1Cn2c(nc3ccccc32)NC1=O` (centres undefined) returned a TGI above 100 µM.

The next test has as its system IGROV1 ovarian. Briefly: NCI-60 cell line screen, 48 h.
As to `O=c1c2ncn(COCCCl)c2n(-c2ccccc2)c(=S)n1-c1ccccc1`, the TGI was above 100 µM.
